Values quoted from earlier work in patent publication US6258845A (priority 1999, dated 2001).
“And” between values parts separate entries of the source, which are not always exact repeats. Equal entries are not always repeated. “Also recorded” adds a separate entry of the source.

What was measured:
[1] = in vivo; cited from earlier work
[2] = system: colon mucosal prostaglandins; details: cited from earlier work
COX (cyclooxygenase) = details: cited from earlier work
[3] = system: AOM-treated rat model of colon carcinogenesis; details: in vivo; cited from earlier work
colon cancer incidence = details: cited from earlier work
[4] = cited from earlier work
[5] = system: carcinogenesis in rodent/animal models; details: in vivo; cited from earlier work
[6] = system: tumors harboring Ki-ras mutations in AOM-treated rats; details: cited from earlier work

SMILES: CC[C@H]1OC(=O)[C@H](C)[C@@H](O[C@H]2C[C@@](C)(OC)[C@@H](O)[C@H](C)O2)[C@H](C)[C@@H](O[C@@H]2O[C@H](C)C[C@H](N(C)C)[C@H]2O)[C@](C)(OC)C[C@@H](C)C(=O)[C@H](C)[C@@H](O)[C@]1(C)O [clarithromycin]
- diarrhea [1]: 10%
- pseudomembranous colitis [1]: 1%

SMILES: CC(=O)Oc1ccccc1C(=O)O [aspirin]
- lowest dose decreasing PGF2α in colon mucosa ([2]; in vivo): 40 mg
- threshold dose of effect on colon mucosa ([2]; in vivo): 81 mg and 80 mg
- effect on colon mucosal prostaglandins ([2]; low doses, another group of investigators): no such effect on colon mucosal prostaglandins
- upper gastrointestinal mucosa prostaglandins ([2]; low doses): substantial reduction of prostaglandins; also recorded: substantial education of prostaglandins
- COX / prostaglandin synthesis inhibition (COX (cyclooxygenase)): inhibitor of cyclooxygenase
- inhibition of colon carcinogenesis in AOM-treated rat model [3]: effectively inhibit colon carcinogenesis
- beneficial effect, three large cohort studies (colon cancer incidence; in vivo): conflicting reports on the beneficial effect
- weekly total dose with evident effect on colon cancer incidence (colon cancer incidence; weekly total dose): ≥ 1000 mg

SMILES: CN1C(C(=O)Nc2ccccn2)=C(O)c2ccccc2S1(=O)=O [piroxicam, 4-Hydroxy-2-methyl-N-2-pyridyl-2H1,2-benzothiazine-3-carboxamide 1,1-dioxide]
- side effects ([4]; IIb trial / meta-analysis): has more side effects than other NSAIDs
- half-life ([4]; human, in vivo): long half-life
- most frequently reported side effects ([4]; human, in vivo): Gastrointestinal complaints
- chemoprevention / inhibition of tumor development in animal models [5]: the most effective chemoprevention agent in animal models
- inhibition of colon carcinogenesis in AOM-treated rat model [3]: effectively inhibit colon carcinogenesis
- Ki-ras mutation / tumors harboring an activated Ki-ras [6]: reduced Ki-ras mutation frequencies
- amount of biochemically active p21 ras in existing tumors [6]: reduced the amount of biochemically active p21 ras in existing tumors
- tumors harboring Ki-ras mutations ([6]; reduced from 90%): 25%

SMILES: COc1ccc2[nH]c([S+]([O-])Cc3ncc(C)c(OC)c3C)nc2c1 (stereo not drawn) [omeprazole]
- dizziness [1]: 2%

SMILES: Cc1c(OCC(F)(F)F)ccnc1C[S+]([O-])c1nc2ccccc2[nH]1 (stereo not drawn) [lansoprazole]
- diarrhea [1]: 8%
- headache [1]: 5%
- nausea [1]: 3%

SMILES: Cc1ncc([N+](=O)[O-])n1CCO [metronidazole]
- disulfiram-like reaction with alcohol ingestion [1]: 20%
- rash [1]: 5%

SMILES: COc1ccc2c(c1)c(CC(=O)O)c(C)n2C(=O)c1ccc(Cl)cc1 [indomethacin]
- COX / prostaglandin synthesis inhibition (COX (cyclooxygenase)): prostaglandin synthase inhibitor
- inhibition of colon carcinogenesis in AOM-treated rat model [3]: effectively inhibit colon carcinogenesis

SMILES: CC1(C)S[C@@H]2[C@H](NC(=O)[C@H](N)c3ccc(O)cc3)C(=O)N2[C@H]1C(=O)O [amoxicillin]
- adverse effects [1]: diarrhea and super-infections
